Test results taken from patent US9550811B2, “Peptide scaffold design” (BIONOR IMMUNO AS, priority 2010, dated 2017).
Like-named read-outs stand apart in the source and are kept apart here.

Tests used:
[1] = system: HLA-B40; experiment: REVEAL binding assay; conditions: score as percentage of the signal generated by the positive control peptide
Procedure: Binding properties to HLA for the ninemers listed in table 6 were tested for the following HLA-classes:
HLA-A1, HLA-A2, HLA-A3, HLA-A11, HLA-A24, HLA-A29, HLA-B7, HLA-B8, HLA-B14, HLA-B15, HLA-B27, HLA-B35, HLA-B40.
The peptides were synthesized as a Prospector PEPscreen®: Custom Peptide Library. Peptides 8-15 amino acids in length were synthesized in 0.5-2 mg quantities with high average purity. Quality control by MALDI-TOF Mass Spectrometry was carried out on 100% of samples.
The REVEAL™ binding assay determined the ability of each candidate peptide to bind to one or more MHC class I alleles and stabilizing the MHC-peptide complex. By comparing the binding to that of high and intermediate affinity T cell epitopes, the most likely immunogenic peptides in a protein sequence can be identified. Detection is based on the presence or absence of the native conformation of the MHC-peptide complex. Each peptide is given a score relative to the positive control peptide, which is a known T cell epitope. The score of the test peptide is reported quantitatively as a percentage of the signal generated by the positive control peptide, and the peptide is indicated as having a putative pass or fail result. Assay performance is confirmed by including an intermediate control peptide that is known to bind with weaker affinity to the allele under investigation.

[2] = system: HLA-B15; experiment: REVEAL binding assay; conditions: score as percentage of the signal generated by the positive control peptide
[3] = system: HLA-B14; experiment: REVEAL binding assay; conditions: score as percentage of the signal generated by the positive control peptide
[4] = system: HLA-A1; experiment: REVEAL binding assay; conditions: score as percentage of the signal generated by the positive control peptide
[5] = system: HLA-B35; experiment: REVEAL binding assay; conditions: score as percentage of the signal generated by the positive control peptide
[6] = system: HLA-B8; experiment: REVEAL binding assay; conditions: score as percentage of the signal generated by the positive control peptide
[7] = system: HLA-A29; experiment: REVEAL binding assay; conditions: score as percentage of the signal generated by the positive control peptide
[8] = system: HLA-A24; experiment: REVEAL binding assay; conditions: score as percentage of the signal generated by the positive control peptide
[9] = system: human PBMCs; type: cell-based; conditions: With Cytofix/Cytoperm and trypsination, BC20
[10] = system: DC-cells; experiment: Cell penetration assay: staining for biotinylated peptides, dendritic cells gated as CD11c+; type: cell-based, human; conditions: low concentration of peptides (208 uM)
Procedure: A set of peptides were biotinylated on N-terminal, and different combinations of aminoacids, with respect to length and type, were added to the sequence box X^1, X^3 and X^4 in the peptides as illustrated by the diagram below. The peptides were tested on cells grown from one individual blood donor.
96-well U-bottom polystyrene plates (NUNC, cat no: 163320) were used for staining of human PBMCs. Briefly, 8 ul of N- or C-terminally biotinylated peptides according to table 1 or table 2 (i.e. 5 mM, 2.5 mM & 1.25 mM tested for each peptide) were incubated at 37° C. for 2 h with 40 ul of PBMC (12.5×10^6 cells/ml) from blood donors. Cells were then washed 3× with 150 ul of Cellwash (BD, cat no: 349524), followed by resuspension of each cell pellet with 100 ul of Trypsin-EDTA (Sigma, cat no: T4424), then incubated at 37° C. for 5 min. Trypsinated cells were then washed 3× with 150 ul of Cellwash (BD, cat no: 349524), followed by resuspension with BD Cytofix/Cytoperm™ plus (BD, cat no: 554715), then incubated at 4° C. for 20 min according to manufacturer. Cells were then washed 2× with 150 ul PermWash (BD, cat no: 554715). Cells were then stained with Streptavidin-APC (BD, cat no: 554067) & Anti-hCD11c (eBioscience, cat no: 12-0116) according to manufacturer at 4° C. for 30 min aiming to visualize biotinylated peptides & dendritic cells, respectively. Cells were then washed 3× with 150 ul PermWash, followed by resuspension in staining buffer (BD, cat no: 554656) before flow cytometry. Dendritic cells were gated as CD11c+ events outside lymphocyte region (i.e. higher FSC & SSC signals than lymphocytes). 200 000 total cells were acquired on a FACSCanto II flow cytometer with HTS loader, and histograms for both total cells & dendritic cells with respect to peptide-fluorescence (i.e. GeoMean) were prepared.
As shown in table 4 the peptides according to the invention had the ability to allocate through the cell membrane.

| Sequence | REVEAL binding score, HLA-type B40 [1] [%] | REVEAL binding score, HLA-type B15 [2] [%] | REVEAL binding score, HLA-type B14 [3] [%] | REVEAL binding score, HLA-type A1 [4] [%] | REVEAL binding score, HLA-type B35 [5] [%] | REVEAL binding score, HLA-type B8 [6] [%] | REVEAL binding score, HLA-type A29 [7] [%] | REVEAL binding score, HLA-type A24 [8] [%] | Geomean value (peptide-fluorescence) ([9]; concentration 104 μM) | Geomean value (peptide-fluorescence) ([9]; concentration 208 μM) | Geomean value (peptide-fluorescence) ([9]; concentration 417 μM) | Geomean value (peptide-fluorescence) ([9]; concentration 833 μM) | Results on DC-cells (geomean peptide-fluorescence) ([10]; BC 16) | Results on DC-cells (geomean peptide-fluorescence) ([10]; BC43) |
| --- | --- | --- | --- | --- | --- | --- | --- | --- | --- | --- | --- | --- | --- | --- |
| SFSIELLAL | 21.04 | – | – | – | – | – | – | – | – | – | – | – | – | – |
| GPRLGVRAT | 19.95 | 10.01 | 0.94 | 13.85 | 1.83 | 13.18 | 12.66 | 0.05 | – | – | – | – | – | – |
| RRGPVVHLTLRRRGQAGDDFS [SP19] | – | – | – | – | – | – | – | – | 1625 | 3466 | 7201 | 17018 | 6522 | 6536 |
| KKGYIPLVGAPLGKKVARALAHGVRV [SP11] | – | – | – | – | – | – | – | – | 601 | 1277 | 3562 | 8262 | 6490 | 13230 |
| RRRGYIPLVGAPLGBRVARALAHGVRV [SP8] | – | – | – | – | – | – | – | – | 2917 | 9617 | 28606 | 31976 | 15379 | 17836 |
| RRGYIPLVGAPLGBGRVARALAHGVRV [SP2] | – | – | – | – | – | – | – | – | 1211 | – | 5486 | 3136 | 6677 | 6112 |
| GGGYIPLVGAPLGGGVARALAHGVRV [SP15] | – | – | – | – | – | – | – | – | 600 | 848 | 477 | 1810 | 5076 | 2539 |
| RRGPVVHLTLRRRGQAGDDFS [SP18] | – | – | – | – | – | – | – | – | 1038 | 1971 | 1334 | 4869 | 5545 | 7751 |
| RGYIPLVGAPLGRRRVARALAHGVRV [SP10] | – | – | – | – | – | – | – | – | 3709 | 7684 | 18607 | 43389 | 8627 | 9216 |
| RGYIPLVGAPLGRRVARALAHGVRV [SP3] | – | – | – | – | – | – | – | – | 4308 | 10788 | 25905 | 40456 | 9480 | 10573 |
| RGYIPLVGAPLGRRRVARALAHGVRVR [SP4] | – | – | – | – | – | – | – | – | 2946 | 7540 | 28008 | 41491 | 10751 | 17372 |
| RRGYIPLVGAPLGLRRVARALAHGVRV [SP17] | – | – | – | – | – | – | – | – | 1500 | 12244 | 29967 | 30248 | 67428 | – |
| WWGYIPLVGAPLGRRVARALAHGVRV [SP13] | – | – | – | – | – | – | – | – | – | 332 | 394 | 568 | 28539 | 9129 |
| WGYIPLVGAPLGRRVARALAHGVRV [SP12] | – | – | – | – | – | – | – | – | 4316 | 8679 | 10869 | 11089 | 59274 | 31222 |
| RRGPVVHLTLRGRRGQAGDDFS [SP20] | – | – | – | – | – | – | – | – | 445 | 1268 | 2457 | 7319 | 19051 | 3383 |
| RRGYIPLVGAPLGRRRVARALAHGVRV [SP6] | – | – | – | – | – | – | – | – | 1850 | 6514 | 22195 | 32577 | 10233 | 14468 |
| EEGYIPLVGAPLGRRVARALAHGVRV [SP16] | – | – | – | – | – | – | – | – | 505 | 1260 | 2240 | 4558 | 5730 | 3656 |
| EEGYIPLVGAPLGEEVARALAHGVRV [SP14] | – | – | – | – | – | – | – | – | 62 | 392 | 682 | 1059 | 3704 | 1629 |
| RRGYIPLVGAPLGRRVARALAHGVRV [SP5] | – | – | – | – | – | – | – | – | 6152 | 19065 | 46060 | 40534 | 21358 | 29146 |
